Measured values published in the supplement of paper PMC10307832.

Legend:
Experiment in all cases: relative viability (nuclei count vs DMSO), 5 days (fraction); higher = more cells survive
[1] = compound: C1/C(=C\C2=CC=CS2)/C(=O)/C(=C/C3=CC=CS3)/C1 + Nc1nc2[nH]cc(CCc3ccc(C(=O)N[C@@H](CCC(=O)O)C(=O)O)cc3)c2c(=O)[nH]1 [Pemetrexed] (partner 0.2 µM)
In short: (§1)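 Relative viability was taken as the ratio of nuclei in treated wells to nuclei in vehicle wells. Lung cancer cell lines in 1536-well plates received compounds by pin tool one day after seeding, either one drug alone or a fixed anchor-drug dose plus five library-drug doses (not always all listed) in √10 steps. Nuclei were counted on 4× images after 5 days of treatment, and values are medians of duplicate plates.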

Lestaurtinib + Olaparib = compound: C[C@]12O[C@H](C[C@]1(O)CO)n1c3ccccc3c3c4c(c5c6ccccc6n2c5c31)CNC4=O [Lestaurtinib] + O=C(c1cc(Cc2n[nH]c(=O)c3ccccc23)ccc1F)N1CCN(C(=O)C2CC2)CC1 [Olaparib] (partner 8 µM)
In short: as §1

[2] = compound: C[C@]12O[C@H](C[C@]1(O)CO)n1c3ccccc3c3c4c(c5c6ccccc6n2c5c31)CNC4=O [Lestaurtinib] + Cc1cc(Nc2cc(N3CCN(C)CC3)nc(Sc3ccc(NC(=O)C4CC4)cc3)n2)n[nH]1 [Tozasertib] (partner 0.1 µM)
In short: as §1

[3] = compound: C1/C(=C\C2=CC=CS2)/C(=O)/C(=C/C3=CC=CS3)/C1 + O=C(CCCCCCC(=O)Nc1ccccc1)NO [Vorinostat] (partner 1 µM)
In short: as §1

Cell Line | relative viability ([1]; first compound 0.2 µM) | relative viability ([1]; first compound 0.6325 µM) | relative viability ([1]; first compound 2 µM) | relative viability ([1]; first compound 6.325 µM) | relative viability ([1]; first compound 20 µM) | relative viability (Lestaurtinib + Olaparib; first compound 0.005 µM) | relative viability (Lestaurtinib + Olaparib; first compound 0.01581 µM) | relative viability (Lestaurtinib + Olaparib; first compound 0.05 µM) | relative viability (Lestaurtinib + Olaparib; first compound 0.1581 µM) | relative viability (Lestaurtinib + Olaparib; first compound 0.5 µM) | relative viability ([2]; first compound 0.005 µM) | relative viability ([2]; first compound 0.01581 µM) | relative viability ([2]; first compound 0.05 µM) | relative viability ([2]; first compound 0.1581 µM) | relative viability ([2]; first compound 0.5 µM) | relative viability ([3]; first compound 0.2 µM) | relative viability ([3]; first compound 0.6325 µM) | relative viability ([3]; first compound 2 µM) | relative viability ([3]; first compound 6.325 µM) | relative viability ([3]; first compound 20 µM)
NCI-H460 | 0.0622 | 0.0731 | 0.0616 | 0.0608 | 0.0583 | 0.511 | 0.532 | 0.449 | 0.516 | 0.429 | 0.519 | 0.478 | 0.524 | 0.986 | 0.303 | 0.859 | 0.724 | 0.783 | 0.398 | 0.635
HCC-366 | 0.168 | 0.169 | 0.156 | 0.116 | 0.172 | 0.375 | 0.338 | 0.35 | 0.455 | 0.254 | 0.174 | 0.126 | 0.142 | 0.0841 | 0.072 | 0.41 | 0.381 | 0.373 | 0.324 | 0.425
NCI-H2085 | 0.963 | 0.909 | 0.96 | 0.857 | 0.939 | 0.804 | 0.755 | 0.835 | 0.935 | 0.84 | 0.828 | 0.83 | 0.75 | 0.882 | 0.56 | 0.739 | 0.808 | 0.857 | 0.7 | 0.715
NCI-H522 | 1.04 | 0.916 | 1.17 | 0.988 | 0.957 | 0.741 | 0.617 | 0.665 | 0.617 | 0.429 | 0.571 | 0.536 | 0.627 | 0.528 | 0.496 | 0.967 | 0.911 | 0.893 | 1.01 | 0.909
PC-14 | 0.145 | 0.166 | 0.136 | 0.131 | 0.142 | 0.252 | 0.243 | 0.242 | 0.238 | 0.179 | 0.639 | 0.668 | 0.674 | 0.546 | 0.163 | 0.855 | 0.809 | 0.843 | 0.614 | 0.687
HOP-62 | 0.307 | 0.316 | 0.248 | 0.243 | 0.342 | 0.287 | 0.763 | 0.515 | 0.525 | 0.16 | 0.35 | 0.43 | 0.396 | 0.356 | 0.234 | 0.733 | 0.681 | 0.646 | 0.51 | 0.68
NCI-H2087 | 0.635 | 0.7 | 0.621 | 0.529 | 0.639 | 0.589 | 0.725 | 0.559 | 0.673 | 0.309 | 0.321 | 0.378 | 0.208 | 0.265 | 0.212 | 0.623 | 0.656 | 0.7 | 0.616 | 0.361
NCI-H1793 | 0.973 | 0.711 | 1.03 | 0.796 | 0.914 | 0.97 | 1.05 | 0.549 | 0.848 | 0.482 | 0.335 | 0.279 | 0.347 | 0.265 | 0.255 | 1.02 | 0.753 | 0.892 | 0.654 | 0.734
PC-3 [JPC-3] | – | 1.15 | 0.982 | 1.04 | 1.26 | 1.2 | 1.3 | 0.818 | 1.03 | 0.698 | 0.87 | 0.998 | 0.765 | 0.777 | 0.587 | – | 0.985 | 0.954 | 0.74 | 1.03
H3255 | 0.573 | 0.594 | 0.61 | 0.528 | 0.602 | 0.563 | 0.535 | 0.54 | 0.525 | 0.397 | 0.611 | 0.884 | 0.633 | 0.587 | 0.5 | 0.756 | 0.856 | 0.427 | 0.758 | 0.875
EMC-BAC-2 | 0.449 | 0.467 | 0.443 | 0.391 | 0.447 | 0.531 | 0.466 | 0.493 | 0.356 | 0.29 | 0.279 | 0.206 | 0.283 | 0.22 | 0.183 | 0.351 | 0.473 | 0.453 | 0.455 | 0.489
SW 900 | 0.481 | 0.525 | 0.49 | 0.399 | 0.482 | 0.92 | 1.12 | 0.958 | 1.34 | 1.07 | 0.462 | 0.683 | 0.503 | 0.703 | 0.538 | 0.525 | 0.485 | 0.569 | 0.59 | 0.558
CAL-12T | 1.28 | 1.25 | 1.24 | 1.16 | 1.07 | 0.837 | 0.767 | 0.877 | 0.802 | 0.344 | 0.32 | 0.44 | 0.333 | 0.37 | 0.332 | 0.724 | 0.91 | 0.648 | 0.77 | 0.788
NCI-H650 | 0.813 | 1.02 | 0.948 | 0.941 | 0.858 | 0.43 | 0.413 | 0.382 | 0.319 | 0.28 | 0.727 | 0.802 | 0.603 | 0.483 | 0.29 | 0.432 | 0.436 | 0.419 | 0.413 | 0.373
SK-MES-1 | 0.972 | 0.959 | 0.949 | 0.752 | 0.988 | 0.782 | 0.676 | 0.448 | 0.33 | 0.175 | 0.966 | 0.834 | 0.341 | 0.455 | 0.197 | 1.18 | 1.13 | 1.1 | 0.985 | 1.11
NCI-H1355 | 1.06 | 0.922 | 1 | 0.96 | 0.971 | 0.804 | 0.754 | 0.563 | 0.566 | 0.369 | 0.51 | 0.52 | 0.377 | 0.441 | 0.287 | 0.664 | 0.627 | 0.705 | 0.598 | 0.587
